According to patent US7776847B2, “Benzisothiazoles useful for treating or preventing HCV infection” (priority 2005, dated 2010):

The compounds below were run on HCV replicon (assay: HCV replicon luciferase reporter assay). Conditions: Hepatitis C virus, Table 5; read-out: IC50.
Type: cell-based
Design: scale not given here
In short: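 Replicon-bearing dividing cells seeded at 5,000–7,500 cells/well, grown 24 h at 37° C/5% CO2, then exposed to test compound at various concentrations for a further 24–48 h. Replication/translation read by luciferase reporter; IC50 taken as compound amount giving 50% reduction in luciferase activity.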

Row | SMILES | IC50
1 | O=S(=O)(NCCCNc1nsc2ccccc12)c1ccc(-c2ccccc2C(F)(F)F)cc1 [Compound 335, N-(3-(benzo[d]isothiazol-3-ylamino)propyl)-2′-(trifluoromethyl)biphenyl-4-sulfonamide] | < 5 µM
2 | FC(F)(F)Oc1ccc(-c2ccc(CNCCCNc3nsc4ccccc34)cc2)cc1 [Compound 336, N^1-(benzo[d]isothiazol-3-yl)-N^3-((4′-(trifluoromethoxy)biphenyl-4-yl)methyl)propane-1,3-diamine] | < 5 µM
3 | c1ccc2oc(CNCCCNc3nsc4ccccc34)cc2c1 [Compound 337, N^1-(benzo[d]isothiazol-3-yl)-N^3-(benzofuran-2-ylmethyl)propane-1,3-diamine] | < 5 µM
4 | c1ccc2c(NCCCNCc3ccc(N4CCCC4)cc3)nsc2c1 [Compound 338, N^1-(benzo[d]isothiazol-3-yl)-N^3-(4-(pyrrolidin-1-yl)benzyl)propane-1,3-diamine] | < 5 µM
5 | COc1ccc(-c2ccc(CN(CCCNc3nsc4ccccc34)C(=O)CS(C)(=O)=O)cc2)cc1 [Compound 339, N-(3-(benzo[d]isothiazol-3-ylamino)propyl)-N-((4′-methoxybiphenyl-4-yl)methyl)-2-(methylsulfonyl)acetamide] | < 5 µM
6 | COc1ccc(-c2ccc(CN(CCCNC3=NS(=O)(=O)c4ccccc43)S(=O)(=O)c3cn(C)c(C)n3)cc2)cc1 [Compound 340, N-{3-[(1,1-dioxido-1,2-benzisothiazol-3-yl)amino]propyl}-N-[(4′-methoxybiphenyl-4-yl)methyl]-1,2-dimethyl-1H-imidazole-4-sulfonamide] | > 5 µM
7 | COc1cccc(CNCCCNc2nsc3ccccc23)c1 [Compound 343, N^1-(benzo[d]isothiazol-3-yl)-N^3-(3-methoxybenzyl)propane-1,3-diamine] | < 5 µM
8 | COc1cccc(S(=O)(=O)N(C)CCCN(C)c2nsc3ccccc23)c1 [Compound 344, N-(3-(benzo[d]isothiazol-3-yl(methyl)amino)propyl)-3-methoxy-N-methylbenzenesulfonamide] | > 5 µM
9 | CN(CCCN(C)S(=O)(=O)c1ccccc1C(F)(F)F)c1nsc2ccccc12 [Compound 345, N-(3-(benzo[d]isothiazol-3-yl(methyl)amino)propyl)-N-methyl-2-(trifluoromethyl)benzenesulfonamide] | > 5 µM
10 | O=C1CCCN1c1ccc(CNCCCNc2nsc3ccccc23)cc1 [Compound 346, 1-(4-((3-(benzo[d]isothiazol-3-ylamino)propylamino)methyl)phenyl)pyrrolidin-2-one] | > 5 µM
11 | COc1ccc(-c2ccc(CN(C)CCCN(C)c3nsc4ccccc34)cc2)cc1 [Compound 347, N^1-(benzo[d]isothiazol-3-yl)-N^3-((4′-methoxybiphenyl-4-yl)methyl)-N^1,N^3-dimethylpropane-1,3-diamine] | > 5 µM
12 | O=C(N[C@@H](C(=O)NCCNc1nsc2ccccc12)c1ccccc1)c1ccc(Cl)cc1 [Compound 348, (R)-N-(2-(2-(benzo[d]isothiazol-3-ylamino)ethylamino)-2-oxo-1-phenylethyl)-4-chlorobenzamide] | < 5 µM
13 | O=C(NCCNc1nsc2ccccc12)c1ccc(F)cc1F [Compound 349, N-(2-(benzo[d]isothiazol-3-ylamino)ethyl)-2,4-difluorobenzamide] | < 5 µM
14 | O=C(NCCNc1nsc2ccccc12)c1cc(F)ccc1F [Compound 350, N-(2-(benzo[d]isothiazol-3-ylamino)ethyl)-2,5-difluorobenzamide] | < 5 µM
15 | O=C(NCCNc1nsc2ccccc12)c1ccccc1C(F)(F)F [Compound 351, N-(2-(benzo[d]isothiazol-3-ylamino)ethyl)-2-(trifluoromethyl)benzamide] | < 5 µM
16 | O=C(NCCNc1nsc2ccccc12)c1cc(F)ccc1C(F)(F)F [Compound 352, N-(2-(benzo[d]isothiazol-3-ylamino)ethyl)-5-fluoro-2-(trifluoromethyl)benzamide] | > 5 µM
17 | O=C(NCCNc1nsc2ccccc12)c1cc(F)cc(C(F)(F)F)c1 [Compound 353, N-(2-(benzo[d]isothiazol-3-ylamino)ethyl)-3-fluoro-5-(trifluoromethyl)benzamide] | < 5 µM
18 | O=C(NCCNc1nsc2ccccc12)c1ccc(C(F)(F)F)cc1F [Compound 354, N-(2-(benzo[d]isothiazol-3-ylamino)ethyl)-2-fluoro-4-(trifluoromethyl)benzamide] | < 5 µM
19 | O=C(NCCNc1nsc2ccccc12)c1ccc(C(F)(F)F)c(F)c1 [Compound 355, N-(2-(benzo[d]isothiazol-3-ylamino)ethyl)-3-fluoro-4-(trifluoromethyl)benzamide] | < 5 µM
20 | O=C(NCCNc1nsc2ccccc12)c1ccc(C(F)(F)F)cc1C(F)(F)F [Compound 356, N-(2-(benzo[d]isothiazol-3-ylamino)ethyl)-2,4-bis(trifluoromethyl)benzamide] | < 5 µM

Row | SMILES | IC50
21 | O=C(NCCNc1nsc2ccccc12)c1cc(C(F)(F)F)ccc1C(F)(F)F [Compound 357, N-(2-(benzo[d]isothiazol-3-ylamino)ethyl)-2,5-bis(trifluoromethyl)benzamide] | < 5 µM
22 | O=C(NCCNc1nsc2ccccc12)c1c(F)cccc1C(F)(F)F [Compound 358, N-(2-(benzo[d]isothiazol-3-ylamino)ethyl)-2-fluoro-6-(trifluoromethyl)benzamide] | > 5 µM
23 | COc1ccc(-c2ccc(C(=O)NCCNc3nsc4ccccc34)cc2)cc1 [Compound 360, N-(2-(benzo[d]isothiazol-3-ylamino)ethyl)-4′-methoxybiphenyl-4-carboxamide] | < 5 µM
24 | COc1ccc(-c2ccc(C(=O)NCCNc3nsc4ccccc34)cc2)cc1OC [Compound 361, N-(2-(benzo[d]isothiazol-3-ylamino)ethyl)-3′,4′-dimethoxybiphenyl-4-carboxamide] | < 5 µM
25 | COc1ccc(Cl)cc1-c1ccc(C(=O)NCCNc2nsc3ccccc23)cc1 [Compound 362, N-(2-(benzo[d]isothiazol-3-ylamino)ethyl)-5′-chloro-2′-methoxybiphenyl-4-carboxamide] | < 5 µM
26 | Cc1ccc(OC(C)C)c(-c2ccc(C(=O)NCCNc3nsc4ccccc34)cc2)c1 [Compound 363, N-(2-(benzo[d]isothiazol-3-ylamino)ethyl)-2′-isopropoxy-5′-methylbiphenyl-4-carboxamide] | < 5 µM
27 | COc1cccc(-c2ccc(C(=O)NCCNc3nsc4ccccc34)cc2)c1OC [Compound 364, N-(2-(benzo[d]isothiazol-3-ylamino)ethyl)-2′,3′-dimethoxybiphenyl-4-carboxamide] | < 5 µM
28 | COc1ccc(C)cc1-c1ccc(C(=O)NCCNc2nsc3ccccc23)cc1 [Compound 365, N-(2-(benzo[d]isothiazol-3-ylamino)ethyl)-2′-methoxy-5′-methylbiphenyl-4-carboxamide] | < 5 µM
29 | COc1ccc(-c2ccc(C(=O)NCCNc3nsc4ccccc34)cc2)c(C)c1 [Compound 366, N-(2-(benzo[d]isothiazol-3-ylamino)ethyl)-4′-methoxy-2′-methylbiphenyl-4-carboxamide] | < 5 µM
30 | CCCOc1ccc(F)cc1-c1ccc(C(=O)NCCNc2nsc3ccccc23)cc1 [Compound 367, N-(2-(benzo[d]isothiazol-3-ylamino)ethyl)-5′-fluoro-2′-propoxybiphenyl-4-carboxamide] | < 5 µM
31 | COc1cc(F)ccc1-c1cccc(C(=O)NCCCNc2nsc3ccccc23)c1 [Compound 368, N-(3-(benzo[d]isothiazol-3-ylamino)propyl)-4′-fluoro-6′-methoxybiphenyl-3-carboxamide] | < 5 µM
32 | COc1cccc(-c2cccc(C(=O)NCCCNc3nsc4ccccc34)c2)c1OC [Compound 369, N-(3-(benzo[d]isothiazol-3-ylamino)propyl)-5′,6′-dimethoxybiphenyl-3-carboxamide] | < 5 µM
33 | COc1ccc(-c2cccc(C(=O)NCCNc3nsc4ccccc34)c2)cc1OC [Compound 370, N-(2-(benzo[d]isothiazol-3-ylamino)ethyl)-3′,4′-dimethoxybiphenyl-3-carboxamide] | < 5 µM
34 | COc1ccc(-c2cccc(C(=O)NCCNc3nsc4ccccc34)c2)cc1 [Compound 371, N-(2-(benzo[d]isothiazol-3-ylamino)ethyl)-4′-methoxybiphenyl-3-carboxamide] | < 5 µM
35 | Cc1ccc(-c2cccc(C(=O)NCCNc3nsc4ccccc34)c2)cc1C [Compound 372, N-(2-(benzo[d]isothiazol-3-ylamino)ethyl)-3′,4′-dimethylbiphenyl-3-carboxamide] | < 5 µM
36 | O=C(NCCNc1nsc2ccccc12)c1cccc(-c2ccc3ccccc3c2)c1 [Compound 373, N-(2-(benzo[d]isothiazol-3-ylamino)ethyl)-3-(naphthalen-2-yl)benzamide] | < 5 µM
37 | O=C(NCCNc1nsc2ccccc12)c1cccc(-c2cccc3cccnc23)c1 [Compound 374, N-(2-(benzo[d]isothiazol-3-ylamino)ethyl)-3-(quinolin-8-yl)benzamide] | < 5 µM
38 | O=C(NCCNc1nsc2ccccc12)c1cccc(-c2cnc3ccccc3c2)c1 [Compound 375, N-(2-(benzo[d]isothiazol-3-ylamino)ethyl)-3-(quinolin-3-yl)benzamide] | < 5 µM
39 | CC(C)Oc1ccccc1-c1cccc(C(=O)NCCCNc2nsc3ccccc23)c1 [Compound 376, N-(3-(benzo[d]isothiazol-3-ylamino)propyl)-6′-isopropoxybiphenyl-3-carboxamide] | < 5 µM
40 | CC(C)Oc1ccccc1-c1ccc(C(=O)NCCNc2nsc3ccccc23)cc1 [Compound 377, N-(2-(benzo[d]isothiazol-3-ylamino)ethyl)-2′-isopropoxybiphenyl-4-carboxamide] | < 5 µM

Same assay, conditions: Table 5; the head prints only IC50; b387 says Tables 5 and 6 hold Replicon reporter and Western blot results

Row | SMILES | IC50
41 | O=C(NCCNc1nsc2ccccc12)c1ccc(F)c(F)c1 [Compound 359, N-(2-(benzo[d]isothiazol-3-ylamino)ethyl)-3,4-difluorobenzamide] | A, B
